As a reminder, the EC50 is the concentration needed to bring the measured effect to its halfway point. One may read the IC50 as the concentration at which inhibition is half-maximal. Broadly, the Ki is the dissociation constant of the complex between target and ligand, obtained from inhibition or displacement.

Test [1] has as its target T1, Dm5-HT2B (Drosophila melanogaster, UniProt Q8INQ6). The test is described as follows: Ca2+ fluorimetry (Fluo-4), agonist activation of Dm5-HT2B expressed in HEK 293 cells. It counts as cell-based. The settings on record: for change in Ca2+-dependent Fluo-4 fluorescence: biogenic amines 1 μM each. As for the experimental part: Stably transfected cells were selected in the presence of the antibiotic G418 (0.8 mg/ml). Isolated foci were propagated and analyzed for the expression of Dm5-HT2B-HA receptor either by immunocytochemistry, Western blotting or by functional Ca^2+ imaging upon receptor activation.
The ability of the Dm5-HT2B-HA receptor (hereafter referred to as Dm5-HT2B) to activate Gq proteins was assessed by monitoring changes in [Ca^2+]i with the Ca^2+-sensitive fluorescent dye Fluo-4 (Invitrogen). Non-transfected HEK 293 cells and cells expressing Dm5-HT2B were grown in minimal essential medium (MEM + GlutaMAX^TMI (Gibco/ThermoFisher Scientific, Darmstadt, Germany) containing 2% (w/v) Utroser^TM G (Pall, Dreieich, Germany), 1 × non-essential amino acids and 1 × antibiotics/antimycotics) in 96-well plates to a density of ∼3 × 10^4 cells per well. In this format, each vertical row (=8 wells) of the 96-well plate is incubated with the same ligand concentration. […] Plates were transferred into a fluorescence reader (FLUOstar Galaxy/Optima; BMG Labtech, Offenburg, Germany) to monitor Fluo-4 fluorescence. […] Various concentrations of biogenic amines and synthetic receptor ligands were added, once Fluo-4 fluorescence had reached a stable value in each well. The changes in Fluo-4 fluorescence were recorded automatically. Concentration-response curves for putative agonists/antagonists were established in at least two independent experiments with octuplicate determinations (s.a.) per data point.

The test system of another test is Am5-HT2A. Also on record: method as in Thamm et al., 2013. The settings on record: ref Thamm et al., 2013, cited from earlier work; for EC50: Am5-HT2A in HEK 293 cells.
A further test relates to Am5-HT2B. Also on record: method as in Thamm et al., 2013. The settings on record: ref Thamm et al., 2013, cited from earlier work; for EC50: Am5-HT2B in HEK 293 cells; for Ca2+-dependent fluorescence blocked to: residual signal.
For the next test, the system named is Cv5-HT2A. Also on record: method as in Röser et al., 2012. Particulars: ref Röser et al., 2012, cited from earlier work; for EC50: Cv5-HT2A in HEK 293 cells.
The test system of another test is Rp5-HT2B. Set-up: method as in Paluzzi et al., 2015. The settings on record: ref Paluzzi et al., 2015, cited from earlier work; for receptor activity reduced by: Rp5-HT2B, highest of three concentrations tested (10^-7, 10^-6, 10^-5 M).
The target of test [2] is T1, Dm5-HT2B. The test is described as follows: Ca2+ fluorimetry (Fluo-4), antagonists on serotonin-stimulated Dm5-HT2B-expressing HEK 293 cells. It counts as cell-based. Particulars: for effect on serotonin-stimulated Dm5-HT2B-expressing cells: 10^-9 M to 10^-4 M antagonist on 10^-7 M serotonin; for Maximal inhibition: relative efficacy, signal with 10^-7 M serotonin = 100%. As for the experimental part:
(§1) The ability of the Dm5-HT2B-HA receptor (hereafter referred to as Dm5-HT2B) to activate Gq proteins was assessed by monitoring changes in [Ca^2+]i with the Ca^2+-sensitive fluorescent dye Fluo-4 (Invitrogen). Non-transfected HEK 293 cells and cells expressing Dm5-HT2B were grown in minimal essential medium (MEM + GlutaMAX^TMI (Gibco/ThermoFisher Scientific, Darmstadt, Germany) containing 2% (w/v) Utroser^TM G (Pall, Dreieich, Germany), 1 × non-essential amino acids and 1 × antibiotics/antimycotics) in 96-well plates to a density of ∼3 × 10^4 cells per well. In this format, each vertical row (=8 wells) of the 96-well plate is incubated with the same ligand concentration. Cells were loaded at room temperature with Fluo-4 as described earlier ([Thamm et al., 2013]; [Blankenburg et al., 2015]) in extracellular solution [ES = in mM: 120 NaCl, 5 KCl, 2 MgCl2, 2 CaCl2, 10 HEPES, 10 Glucose, pH 7.4 (NaOH)]. Plates were transferred into a fluorescence reader (FLUOstar Galaxy/Optima; BMG Labtech, Offenburg, Germany) to monitor Fluo-4 fluorescence. The excitation wavelength was 485 nm, and fluorescence emission was detected at 520 nm. Various concentrations of biogenic amines and synthetic receptor ligands were added, once Fluo-4 fluorescence had reached a stable value in each well. The changes in Fluo-4 fluorescence were recorded automatically. Concentration-response curves for putative agonists/antagonists were established in at least two independent experiments with octuplicate determinations (s.a.) per data point.
Next, we examined the ability of potential receptor antagonists for impairing Dm5-HT2B activity.

The target of test [3] is T1, Dm5-HT2B. Also on record: method as in Gasque et al. (2013). Particulars: Dm5-HT2B in HEK 293T cells, individual cells; ref Gasque et al. (2013); cited from earlier work.
Another test deals with D. melanogaster larvae. Set-up: method as in Gasque et al., 2013. Particulars: ref Gasque et al., 2013; cited from earlier work.
Test [4] deals with β-adrenergic-like octopamine receptor Octβ3R (CG42244). Set-up: method as in Maqueira et al., 2005. Particulars: only 10^-5 M tested; ref Maqueira et al., 2005; cited from earlier work.
The target of test [5] is tyramine receptor TyrR (CG7431). Set-up: method as in Arakawa et al., 1990. Particulars: ref Arakawa et al., 1990; cited from earlier work.
Test [6] concerns non-transfected HEK 293 cells. Put plainly: Ca2+ fluorimetry (Fluo-4) in non-transfected HEK 293 cells (control). The settings on record: for change in Ca2+-dependent Fluo-4 fluorescence: biogenic amines 1 μM each. It counts as cell-based. As for the experimental part: as §1
The mark [7] stands for this setting: background of 10^-7 M serotonin, Dm5-HT2B-expressing HEK 293 cells.

Where “and” joins values, the source holds several entries; their conditions need not be identical. Equal entries are not always repeated. Entries after “also recorded” stand apart in the source; their conditions may differ. Where two headings read alike, the source gives them in different places.

T1 sequence (Q8INQ6 entry or part of it): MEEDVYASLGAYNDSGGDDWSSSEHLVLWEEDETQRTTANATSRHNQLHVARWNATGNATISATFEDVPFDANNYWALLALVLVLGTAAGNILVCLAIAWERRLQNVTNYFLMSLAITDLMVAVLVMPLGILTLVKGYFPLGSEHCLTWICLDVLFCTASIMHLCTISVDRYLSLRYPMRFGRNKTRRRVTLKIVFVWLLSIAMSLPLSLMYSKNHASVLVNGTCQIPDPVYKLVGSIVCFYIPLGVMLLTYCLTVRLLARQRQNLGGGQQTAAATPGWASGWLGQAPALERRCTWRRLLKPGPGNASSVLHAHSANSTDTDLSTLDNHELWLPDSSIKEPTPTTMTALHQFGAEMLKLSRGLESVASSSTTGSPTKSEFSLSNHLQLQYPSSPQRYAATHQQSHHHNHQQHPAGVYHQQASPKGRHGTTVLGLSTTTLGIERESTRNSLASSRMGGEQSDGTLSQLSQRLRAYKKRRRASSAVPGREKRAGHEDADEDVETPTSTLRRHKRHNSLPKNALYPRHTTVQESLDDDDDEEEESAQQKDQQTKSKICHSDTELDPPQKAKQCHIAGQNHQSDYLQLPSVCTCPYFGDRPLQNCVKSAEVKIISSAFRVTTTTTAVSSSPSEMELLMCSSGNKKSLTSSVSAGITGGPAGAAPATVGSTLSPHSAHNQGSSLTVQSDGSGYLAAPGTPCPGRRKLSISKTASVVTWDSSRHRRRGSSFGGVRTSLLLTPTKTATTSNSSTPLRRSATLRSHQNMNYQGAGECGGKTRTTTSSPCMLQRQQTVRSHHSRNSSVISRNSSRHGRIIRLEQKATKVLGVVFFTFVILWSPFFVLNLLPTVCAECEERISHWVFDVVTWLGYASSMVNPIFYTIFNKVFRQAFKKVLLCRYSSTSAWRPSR

Regarding `COc1ccc2[nH]cc(CCN)c2c1` [5-methoxytryptamine], the EC50 on Dm5-HT2B [1] (EC50 (half-maximal activation of Dm5-HT2B), Dm5-HT2B-expressing HEK 293 cells, Fluo-4 fluorescence, concentrations 10^-9 M to 10^-4 M) is 1050 nM and ~1000 nM; with Am5-HT2A, 70 nM; with Am5-HT2B, 60.4 nM; with Cv5-HT2A, 67 nM.

Take `CCCN(CCC)C1CCc2cccc(O)c2C1` (stereo not drawn) [8-OH-DPAT, 8-Hydroxy-2-(di-n-propylamino)tetralin]: the concentration giving a half-maximal response (EC50) on Dm5-HT2B [1] was roughly 650000 nM; with Am5-HT2A, 55900 nM; in the test on Am5-HT2B it was 560 nM; in the test on Cv5-HT2A, 62000 nM.

Take `CN1CCN(C2=Nc3cc(Cl)ccc3Nc3ccccc32)CC1` [Clozapine, clozapine]: in the test with Am5-HT2B (Am5-HT2B), the “Ca2+-dependent fluorescence blocked to” value is on record as 5%.

On to `CN1CCC(=C2c3ccccc3C=Cc3ccccc32)CC1` [Cyproheptadine, cyproheptadine], for which the “receptor activity reduced by” value with Rp5-HT2B was no less than 50%. Further, the “serotonin-induced Ca2+-dependent fluorescence reduced by” value with Am5-HT2A (Am5-HT2A) is 36%. Moreover, in the test with Am5-HT2B (Am5-HT2B), the “Ca2+-dependent fluorescence blocked to” value was 23%.

As to `O=C(c1ccc(F)cc1)C1CCN(CCn2c(=O)[nH]c3ccccc3c2=O)CC1` [Ketanserin, ketanserin], the “effect on serotonin-stimulated Dm5-HT2B-expressing cells” value at Dm5-HT2B [2] is on record as “did not observe any effect; also recorded: completely lacked inhibitory potential”. At Dm5-HT2B [2] (setting [7]), the IC50 entry is recorded as “no effect”. In the test with Rp5-HT2B, the “receptor activity reduced by” value was no less than 50%.

On to `CC[C@@H](CO)NC(=O)[C@@H]1C=C2c3cccc4c3c(cn4C)C[C@H]2N(C)C1` [Methysergide, methysergide], for which, at Dm5-HT2B [2], the “effect on serotonin-stimulated Dm5-HT2B-expressing cells” value was “did not observe any effect; also recorded: completely lacked inhibitory potential”. The IC50 result against Dm5-HT2B [2] (setting [7]) was “no effect”.

For the molecule `CSc1ccc2c(c1)C(N1CCN(C)CC1)Cc1ccccc1S2` (stereo not drawn) [Metitepine, metitepine], the half-inhibitory concentration (IC50) is 3.56e-06 M at Dm5-HT2B [2] (IC50, background of 10^-7 M serotonin, Dm5-HT2B-expressing HEK 293 cells); 3.55e-06 M on Dm5-HT2B [2] (Log IC50 ± SD, logarithm of the IC50 (M), background of 10^-7 M serotonin); 2000 nM on Dm5-HT2B [3]; 1200 nM in the test on Cv5-HT2A (Cv5-HT2A). Also, the Maximal inhibition on Dm5-HT2B [2] is given as 35%. Besides, the “inhibition range (IC50)” value in the test with Am5-HT2A (Am5-HT2A) is on record as “micromolar range”. Also, in the test on Am5-HT2A (Am5-HT2A), the “serotonin-induced Ca2+-dependent fluorescence reduced by” value was 39%. For the same molecule, the antagonist activity entry in the test with Am5-HT2B (Am5-HT2B) is “did not have any activity at all”. In addition, in the test with Cv5-HT2A (Cv5-HT2A), the “serotonin-induced Ca2+ signals reduced to % of control measurements” value was 15%. In the test on D. melanogaster larvae, the “effect on food intake” value is on record as “potent anorectic drug”.

For `CCN(CC)CCNC(=O)c1cc(Cl)c(N)cc1OC` [Metoclopramide, metoclopramide], the IC50 on Dm5-HT2B [2] (background of 10^-7 M serotonin, Dm5-HT2B-expressing HEK 293 cells, read-out: IC50) was 1.59e-08 M; on Dm5-HT2B [2] (logarithm of the IC50 (M), background of 10^-7 M serotonin, read-out: Log IC50 ± SD (converted)) it was 1.58e-08 M. The molecule also registered a Maximal inhibition on Dm5-HT2B [2] of 60%. At Dm5-HT2B [2] (residual signal at maximal inhibition), the “serotonin-evoked Ca2+ response reduced to % of control measurements without antagonist” value came to 40%. Further, the effect on receptor entry in test [4] is listed as “block”. The inhibition constant (Ki) in test [5] was 4600 nM.

For the molecule `CN1CCN2c3ccccc3Cc3ccccc3C2C1` (stereo not drawn) [Mianserin, mianserin], the “receptor activity reduced by” value in the test with Rp5-HT2B was no less than 50%. For the same molecule, in the test with Am5-HT2A (Am5-HT2A), the “serotonin-induced Ca2+-dependent fluorescence reduced by” value is on record as 49%. The “Ca2+-dependent fluorescence blocked to” value in the test on Am5-HT2B (Am5-HT2B) is 24%.

On to `COc1cc2nc(N3CCN(C(=O)c4ccco4)CC3)nc(N)c2cc1OC` [Prazosin, prazosin], for which, on Dm5-HT2B [2], the “effect on serotonin-stimulated Dm5-HT2B-expressing cells” value is given as “caused a reduction of the cellular response; also recorded: the responses did not saturate” and the Maximal inhibition is on record as 50%. Also, the half-inhibitory concentration (IC50) result on Dm5-HT2B [2] (setting [7]) is recorded as “no saturation”.

For `Cc1cc2c(cc1Cl)N(C(=O)Nc1ccc(Oc3cccnc3C)nc1)CC2` [SB 242084], on Dm5-HT2B [2], the “effect on serotonin-stimulated Dm5-HT2B-expressing cells” value is given as “did not observe any effect; also recorded: completely lacked inhibitory potential”. In addition, the half-inhibitory concentration (IC50) result at Dm5-HT2B [2] (setting [7]) was “no effect”.

Turning to `O=C(CCCN1CCC2(CC1)C(=O)NCN2c1ccccc1)c1ccc(F)cc1` [Spiperone, spiperone], at Dm5-HT2B [2], the “effect on serotonin-stimulated Dm5-HT2B-expressing cells” value was “caused a reduction of the cellular response; also recorded: the responses did not saturate” and the Maximal inhibition was determined as 25%. The half-inhibitory concentration (IC50) result against Dm5-HT2B [2] (setting [7]) is given as “no saturation”.

`NCCc1ccc(O)c(O)c1` [dopamine]: the “change in Ca2+-dependent Fluo-4 fluorescence” value (“change” below) on Dm5-HT2B [1] (Dm5-HT2B-expressing cells) is given as “Neither dopamine, octopamine nor tyramine evoked responses”; in test [6], “Neither dopamine, octopamine nor tyramine evoked responses”.

Consider `NCCc1c[nH]cn1` [histamine], for which the “change” value (on Dm5-HT2B [1] (Dm5-HT2B-expressing cells); in test [6]) was “caused a rise in Ca^2+-dependent Fluo-4 fluorescence” throughout.

As to `NCC(O)c1ccc(O)cc1` (stereo not drawn) [octopamine], the “change” value on Dm5-HT2B [1] (Dm5-HT2B-expressing cells) is on record as “Neither dopamine, octopamine nor tyramine evoked responses”; in test [6] it was “Neither dopamine, octopamine nor tyramine evoked responses”.

With `NCCc1c[nH]c2ccc(O)cc12` [serotonin, 5-hydroxytryptamine], the “concentration at which the concentration-response curve saturated” value on Dm5-HT2B [1] (Dm5-HT2B-expressing cells) came to 30 µM. In addition, the “change” value at Dm5-HT2B [1] (Dm5-HT2B-expressing cells) was “increase in the fluorescence signal”; in [6] it was “not in non-transfected cells”. In addition, the “fluorescence signal at the highest ligand concentration” value in test [6] (10^-4 M) is on record as “slight increase in the fluorescence signal”. Also, the concentration giving a half-maximal response (EC50) was 201 nM with Rp5-HT2B (Rp5-HT2B in CHOK1-aeq cells), 25.7 nM in the test on Am5-HT2A, 32.5 nM in the test on Am5-HT2B and 24 nM in the test on Cv5-HT2A.

`NCCc1ccc(O)cc1` [tyramine]: the “change” value at Dm5-HT2B [1] (Dm5-HT2B-expressing cells) is on record as “Neither dopamine, octopamine nor tyramine evoked responses”; in [6], “Neither dopamine, octopamine nor tyramine evoked responses”.
